Key:
[1] = system: A10-excised Apt (DNA, aptamer) GTATTGCGGAGGAAGGTTTTTAACCTTCGGGG; assay: SYBR Green I fluorescence; conditions: 100 mM NaCl, 5 mM MgCl2; 20 mM HEPES pH 7.6; SYBR Green I displaced; 2 mM
[2] = system: Wide-type adenosine Apt (wild-type aptamer) (DNA, aptamer) ACCTGGGGGAGTATTGCGGAGGAAGGT; assay: SYBR Green I fluorescence; conditions: 100 mM NaCl, 5 mM MgCl2, 20 mM HEPES pH 7.6, 2 mM
[3] = system: Duplex-2 (DNA, hairpin) GTATTGCGCCCCGAAGGTTTTTAACCTTCGGGG; assay: SYBR Green I fluorescence; conditions: 100 mM NaCl, 5 mM MgCl2; 20 mM HEPES pH 7.6; 12.5 nM SYBR Green I; 2 mM
[4] = system: Res-A10-Right cut (DNA, aptamer) GTATTGCGGAGGAAGGTTTTTAACCTTCGGGGA; assay: SYBR Green I fluorescence; conditions: 100 mM NaCl, 5 mM MgCl2; 20 mM HEPES pH 7.6; SYBR Green I displaced; 2 mM
[5] = system: Res-A10-Right cut (DNA, aptamer) GTATTGCGGAGGAAGGTTTTTAACCTTCGGGGA; assay: SYBR Green I fluorescence titration; conditions: 100 mM NaCl, 5 mM MgCl2, 20 mM HEPES pH 7.6
[6] = system: One-site Apt (DNA, aptamer) ACCTTCGGGGAGTATTGCGGAGGAAGGT; assay: ITC; conditions: 100 mM NaCl, 5 mM MgCl2; 20 mM HEPES pH 7.6, 10 °C, one-site model
[7] = system: A10-excised Apt (DNA, aptamer) GTATTGCGGAGGAAGGTTTTTAACCTTCGGGG; assay: SYBR Green I fluorescence titration; conditions: 100 mM NaCl, 5 mM MgCl2, 20 mM HEPES pH 7.6
[8] = system: A10-excised Apt (DNA, aptamer) GTATTGCGGAGGAAGGTTTTTAACCTTCGGGG; assay: ITC; conditions: 100 mM NaCl, 5 mM MgCl2, 20 mM HEPES pH 7.6, 10 °C
[9] = system: Res-A10-Right cut (DNA, aptamer) GTATTGCGGAGGAAGGTTTTTAACCTTCGGGGA; assay: ITC; conditions: 100 mM NaCl, 5 mM MgCl2, 20 mM HEPES pH 7.6, 10 °C
[10] = system: Res-A10-Left cut (DNA, aptamer) AGTATTGCGGAGGAAGGTTTTTAACCTTCGGGG; assay: SYBR Green I fluorescence titration; conditions: 100 mM NaCl, 5 mM MgCl2; 20 mM HEPES pH 7.6; SYBR Green I (50 nM) displaced; apparent
[11] = system: Duplex-1 (DNA, hairpin) GGGGGTATTGCCCCCGCAAGGTTTTTAACCTTG; assay: SYBR Green I fluorescence; conditions: 100 mM NaCl, 5 mM MgCl2; 20 mM HEPES pH 7.6; 12.5 nM SYBR Green I; 2 mM
[12] = system: Res-A10-Left cut (DNA, aptamer) AGTATTGCGGAGGAAGGTTTTTAACCTTCGGGG; assay: SYBR Green I fluorescence; conditions: 100 mM NaCl, 5 mM MgCl2; 20 mM HEPES pH 7.6; SYBR Green I displaced; drop two thirds of adenosine's
[13] = SYBR Green I (50 nM) displaced, apparent
[14] = 1 mM AMP in syringe, extremely weak, undetectable heat

| SMILES | binding [1] | binding ([2]; SYBR Green I displaced) | binding [4] | binding ([2]; 50 nM SYBR Green I displaced) | further results |
| --- | --- | --- | --- | --- | --- |
| Nc1nc2c(ncn2[C@@H]2O[C@H](CO)[C@@H](O)[C@H]2O)c(=O)[nH]1 | no | no |  |  |  |
| Nc1ncnc2c1ncn2[C@@H]1O[C@H](CO)[C@@H](O)[C@H]1O |  |  |  | yes | half saturation [5, 13]: 0.94 mM; Kd [6]: 2.8 ± 0.1 µM; Kd [7, 13]: 370 µM; Kd ([8]; one-site model): 14.8 ± 2.1 µM; binding [3]: no; Kd ([9]; one-site model): 21.0 ± 3.8 µM; Kd [10]: 570 µM; binding [11]: no |
| O=c1ccn([C@@H]2O[C@H](CO)[C@@H](O)[C@H]2O)c(=O)[nH]1 | no | no | no |  |  |

Further lines, with some results ahead:

| binding [1] | binding ([2]; SYBR Green I displaced) | binding [4] | binding ([2]; 50 nM SYBR Green I displaced) | SMILES | further results |
| --- | --- | --- | --- | --- | --- |
| no | no |  |  | Cn1c(=O)c2[nH]cnc2n(C)c1=O |  |
| no | no | no |  | Nc1ccn([C@@H]2O[C@H](CO)[C@@H](O)[C@H]2O)c(=O)n1 | binding [3]: no |
|  |  |  | yes | Nc1ncnc2c1ncn2[C@@H]1O[C@H](COP(=O)(O)O)[C@@H](O)[C@H]1O | binding ([5]; SYBR Green I displaced, no binding in titration): no; Kd [6]: 13.5 ± 1.6 µM; binding ([7]; SYBR Green I displaced, up to 2 mM): no; binding [8, 14]: no; binding [9, 14]: no; binding [12]: yes |
| no |  | no | yes | Nc1ncnc2c1ncn2[C@@H]1O[C@H](COP(=O)(O)OP(=O)(O)OP(=O)(O)O)[C@@H](O)[C@H]1O |  |

Source: publication PMC8157715 (2020)
